Data taken from the NIST ThermoML archive (doi:10.1016/j.jct.2006.05.004).

Key:
[1] = 298.15 K; 101.33 kPa; Liquid
[2] = refractive index (Na D-line) (dimensionless); settings: 298.15 K; 101.33 kPa; Liquid; Standard Abbe refractometry
[3] = xn = mol fraction of the nth substance listed; settings: 298.15 K, 101 kPa, Liquid
[4] = excess molar enthalpy (molar enthalpy of mixing); xn = mol fraction of the nth substance listed; settings: 298.15 K, 101 kPa, Liquid

COC(C)=O [methyl ethanoate]
Settings | mass density [kg/m3] | refractive index
[1] | 926.73 | –
[2] | – | 1.3585

CCC(=O)OC [methyl propanoate]
Settings | mass density [kg/m3] | refractive index
[1] | 910.18 | –
[2] | – | 1.374

CCCC(=O)OC [methyl butanoate]
Settings | mass density [kg/m3] | refractive index
[1] | 892.42 | –
[2] | – | 1.386

BrCCCBr [1,3-dibromopropane] + CCCCC(=O)OC
Settings | excess molar enthalpy [kJ/mol] | mass density [kg/m3]
[3], x2 = 0.0534 | – | 1896.4
[3], x2 = 0.0937 | – | 1841.97
[3], x2 = 0.1477 | – | 1771.31
[3], x2 = 0.188 | – | 1720.07
[3], x2 = 0.2439 | – | 1650.83
[3], x2 = 0.2975 | – | 1586.35
[3], x2 = 0.3439 | – | 1532.03
[3], x2 = 0.4116 | – | 1455.16
[3], x2 = 0.4656 | – | 1395.81
[3], x2 = 0.5216 | – | 1335.88
[3], x2 = 0.5922 | – | 1262.69
[3], x2 = 0.6481 | – | 1206.41
[3], x2 = 0.7047 | – | 1151.1
[3], x2 = 0.7835 | – | 1076.35
[3], x2 = 0.8493 | – | 1016.07
[3], x2 = 0.9201 | – | 953.2
[4], x2 = 0.0492 | 0.0239 | –
[4], x2 = 0.1163 | 0.0387 | –
[4], x2 = 0.1938 | 0.0407 | –
[4], x2 = 0.2736 | 0.0321 | –
[4], x2 = 0.338 | 0.0176 | –
[4], x2 = 0.41 | -0.0099 | –
[4], x2 = 0.4582 | -0.0311 | –
[4], x2 = 0.4998 | -0.047 | –
[4], x2 = 0.5481 | -0.0609 | –
[4], x2 = 0.6786 | -0.0662 | –
[4], x2 = 0.7994 | -0.0551 | –
[4], x2 = 0.9065 | -0.0355 | –

BrCCCCCBr [1,5-dibromopentane] + CCC(=O)OC
Settings | excess molar enthalpy [kJ/mol] | mass density [kg/m3]
[3], x2 = 0.0841 | – | 1644.47
[3], x2 = 0.1537 | – | 1602.6
[3], x2 = 0.1671 | – | 1594.29
[3], x2 = 0.2971 | – | 1510.79
[3], x2 = 0.3661 | – | 1463.62
[3], x2 = 0.4312 | – | 1417.3
[3], x2 = 0.4903 | – | 1373.47
[3], x2 = 0.609 | – | 1280.2
[3], x2 = 0.6628 | – | 1235.27
[3], x2 = 0.716 | – | 1189.3
[3], x2 = 0.8143 | – | 1099.41
[3], x2 = 0.864 | – | 1051.37
[3], x2 = 0.9561 | – | 957.37
[4], x2 = 0.0808 | 0.118 | –
[4], x2 = 0.1674 | 0.191 | –
[4], x2 = 0.2542 | 0.247 | –
[4], x2 = 0.3326 | 0.275 | –
[4], x2 = 0.4065 | 0.284 | –
[4], x2 = 0.4708 | 0.279 | –
[4], x2 = 0.4974 | 0.272 | –
[4], x2 = 0.5293 | 0.263 | –
[4], x2 = 0.5381 | 0.26 | –
[4], x2 = 0.5791 | 0.24 | –
[4], x2 = 0.584 | 0.235 | –
[4], x2 = 0.6329 | 0.213 | –
[4], x2 = 0.6845 | 0.181 | –
[4], x2 = 0.7383 | 0.153 | –
[4], x2 = 0.7938 | 0.119 | –
[4], x2 = 0.8494 | 0.0847 | –
[4], x2 = 0.9053 | 0.0468 | –
[4], x2 = 0.955 | 0.0218 | –

BrCCBr [1,2-dibromoethane] + CCCC(=O)OC
Settings | excess molar enthalpy [kJ/mol] | mass density [kg/m3]
[3], x2 = 0.0456 | – | 2090.91
[3], x2 = 0.0934 | – | 2013.52
[3], x2 = 0.138 | – | 1943.4
[3], x2 = 0.1885 | – | 1866.04
[3], x2 = 0.2437 | – | 1784.45
[3], x2 = 0.2925 | – | 1714.77
[3], x2 = 0.3454 | – | 1641.47
[3], x2 = 0.4047 | – | 1562.1
[3], x2 = 0.5193 | – | 1415.94
[3], x2 = 0.5812 | – | 1340.87
[3], x2 = 0.6461 | – | 1264.87
[3], x2 = 0.7118 | – | 1190.49
[3], x2 = 0.7767 | – | 1119.58
[3], x2 = 0.8458 | – | 1046.47
[3], x2 = 0.9209 | – | 970.06
[4], x2 = 0.0509 | 0.0205 | –
[4], x2 = 0.1042 | 0.0323 | –
[4], x2 = 0.1621 | 0.0359 | –
[4], x2 = 0.2266 | 0.0313 | –
[4], x2 = 0.2928 | 0.0175 | –
[4], x2 = 0.3635 | -0.0036 | –
[4], x2 = 0.4243 | -0.0281 | –
[4], x2 = 0.4796 | -0.0481 | –
[4], x2 = 0.537 | -0.0618 | –
[4], x2 = 0.6008 | -0.0691 | –
[4], x2 = 0.6755 | -0.0704 | –
[4], x2 = 0.7537 | -0.0638 | –
[4], x2 = 0.8373 | -0.0493 | –
[4], x2 = 0.9188 | -0.0296 | –

COC=O [methyl methanoate]
Settings | mass density [kg/m3] | refractive index
[1] | 966.83 | –
[2] | – | 1.3415

BrCCCBr [1,3-dibromopropane] + COC=O
Settings | excess molar enthalpy [kJ/mol] | mass density [kg/m3]
[3], x2 = 0.168 | – | 1858.59
[3], x2 = 0.2514 | – | 1796.92
[3], x2 = 0.3294 | – | 1735.49
[3], x2 = 0.4017 | – | 1674.57
[3], x2 = 0.4684 | – | 1614.73
[3], x2 = 0.5278 | – | 1558.51
[3], x2 = 0.591 | – | 1495.15
[3], x2 = 0.6438 | – | 1439.24
[3], x2 = 0.7014 | – | 1374.75
[3], x2 = 0.7953 | – | 1261.18
[3], x2 = 0.8394 | – | 1203.31
[3], x2 = 0.8849 | – | 1141.17
[3], x2 = 0.9258 | – | 1082.23
[4], x2 = 0.0766 | 0.304 | –
[4], x2 = 0.1698 | 0.57 | –
[4], x2 = 0.2646 | 0.744 | –
[4], x2 = 0.3543 | 0.853 | –
[4], x2 = 0.4503 | 0.915 | –
[4], x2 = 0.5147 | 0.925 | –
[4], x2 = 0.5752 | 0.904 | –
[4], x2 = 0.6318 | 0.862 | –
[4], x2 = 0.6814 | 0.803 | –
[4], x2 = 0.7238 | 0.736 | –
[4], x2 = 0.7605 | 0.667 | –
[4], x2 = 0.8277 | 0.513 | –
[4], x2 = 0.8783 | 0.388 | –
[4], x2 = 0.9299 | 0.248 | –
